Values quoted from earlier work in paper PMC5260004, “Permeability across a novel microfluidic blood-tumor barrier model” (Fluids and Barriers of the CNS, 2017).

Test system: P-gp
Design: method as in PMID 23916719
Settings: in vivo, rhodamine 123 and an inhibitor of P-gp administered concurrently

fold higher dye accumulation in brain with P-gp inhibitor than in the absence of efflux inhibition: 10- to 12 fold
Structure (SMILES): COC(=O)c1ccccc1-c1c2ccc(=N)cc-2oc2cc(N)ccc12 [Rho123, Rhodamine 123]
